Laboratory results as given in ChEMBL document CHEMBL4834404, “Template-Hopping Approach Leads to Potent, Selective, and Highly Soluble Bromo and Extraterminal Domain (BET) Second Bromodomain (BD2) Inhibitors” (J Med Chem, 2021).
Values after ≈ are worked out from the molar mass of the structure shown.

How the values were obtained:
[1] = molecular target: Bromodomain-containing protein 4 (Homo sapiens, UniProt O60885, Y390A); assay: Inhibition of 6His-Thr-BRD4 (1 to 477 residues) BD2 domain Y390A mutant (unknown origin) incubated for 30 mins by TR-FRET assay
[2] = Solubility of compound by CLND assay; type: physicochemical
Homo sapiens = species on record: Homo sapiens; assay: Selectivity index, ratio of pIC50 of BRD4 BD1 (unknown origin) to pIC50 of BRD4 BD2 (unknown origin)
[3] = molecular target: Bromodomain-containing protein 4 (Homo sapiens, UniProt O60885, Y97A); assay: Inhibition of 6His-Thr-BRD4 (1 to 477 residues) BD1 Y97A mutant (unknown origin) incubated for 30 mins by TR-FRET assay
[4] = Permeability of compound; type: ADME; settings: not told; read-out: permeability
[5] = Solubility of the compound in pH 6.5 FaSSIF at 1 mg measured after 4 hrs by HPLC analysis; type: physicochemical

SMILES | IC50 [1] | solubility kinetic [2] | Ratio pIC50 (Homo sapiens) | IC50 [3] | Papp [4] | solubility at 4 h [5]
Cc1cc(-c2ccccc2OCc2ccccc2)on1 | 3.98 µM | 1 µg/mL (≈ 3.77 µM) | 3 | 10 µM | – | –
Cn1cc(-c2cc(C(=O)NCC3CCOCC3)cc(Cc3ccccc3)n2)nn1 | 0.316 µM | ≥ 142 µg/mL | > 160 | > 50.1 µM | 22 ×10⁻⁶ cm/s | –
CNC(=O)c1cc(C(=O)NC2CC2)cn(Cc2ccccc2)c1=O [GSK620] | – | ≥ 154 µg/mL | – | – | 20 ×10⁻⁶ cm/s | –
Cc1nnc(-c2ccccc2OCc2ccccc2)o1 | 12.6 µM | ≥ 252 µg/mL | > 4 | > 50.1 µM | – | –
C[C@H](Oc1ccc(C(=O)N[C@H]2CC[C@H](O)CC2)cc1-c1cn(C)nn1)c1ccccn1 | 0.398 µM | ≥ 188 µg/mL | 20 | 7.94 µM | 1.3 ×10⁻⁶ cm/s | –
CCNC(=O)c1ccc(O[C@H](C)c2ccccc2)c(-c2cn(C)nn2)c1 | 1.58 µM | 119 µg/mL (≈ 340 µM) | 25 | 39.8 µM | 42 ×10⁻⁶ cm/s | –
Cc1cn(-c2ccccc2OCc2ccccc2)nn1 | 15.8 µM | 96 µg/mL (≈ 362 µM) | 2 | 31.6 µM | – | –
CCNC(=O)c1ccc(OCc2ccncc2)c(-c2cn(C)nn2)c1 | 1 µM | ≥ 115 µg/mL | 15 | 12.6 µM | 30 ×10⁻⁶ cm/s | –
CCNC(=O)c1cc(Cc2ccc(OC)cc2)nc(-c2cn(C)nn2)c1 | 0.794 µM | 53 µg/mL (≈ 151 µM) | > 65 | > 50.1 µM | 32 ×10⁻⁶ cm/s | –
CCNC(=O)c1ccc(OCc2cccc(OC)c2)c(-c2cn(C)nn2)c1 | 0.251 µM | ≥ 139 µg/mL | 80 | 20 µM | 42 ×10⁻⁶ cm/s | –
CCNC(=O)c1cc(Cc2ccccc2F)nc(-c2cn(C)nn2)c1 | 0.2 µM | 66 µg/mL (≈ 194 µM) | 100 | 20 µM | 30 ×10⁻⁶ cm/s | –
CCNC(=O)c1ccc(OCCc2ccccc2)c(-c2cn(C)nn2)c1 | 2.51 µM | 95 µg/mL (≈ 271 µM) | > 20 | > 50.1 µM | 49 ×10⁻⁶ cm/s | –
CCNC(=O)c1ccc(OCC2CCOCC2)c(-c2cn(C)nn2)c1 | – | ≥ 208 µg/mL | – | – | 11 ×10⁻⁶ cm/s | –
CC(=O)Nc1ccccc1OCc1ccccc1 | – | ≥ 113 µg/mL | – | – | – | –
CCNC(=O)c1ccc(OCc2ccccn2)c(-c2cn(C)nn2)c1 | 0.316 µM | 114 µg/mL (≈ 338 µM) | 125 | 39.8 µM | 14 ×10⁻⁶ cm/s | –
CCNC(=O)c1cc(Cc2ccc(F)cc2)nc(-c2cn(C)nn2)c1 | 0.251 µM | 75 µg/mL (≈ 221 µM) | 80 | 20 µM | 33 ×10⁻⁶ cm/s | –
CCNC(=O)c1ccc(OCc2ccc(OC)cc2)c(-c2cn(C)nn2)c1 | 0.316 µM | ≥ 142 µg/mL | 65 | 20 µM | 39 ×10⁻⁶ cm/s | –
C[C@H](Oc1ccc(C(=O)NCC2CCOCC2)cc1-c1cn(C)nn1)c1ccccn1 | 0.501 µM | ≥ 192 µg/mL | 65 | 31.6 µM | 5.5 ×10⁻⁶ cm/s | –
Cc1nc(-c2ccccc2OCc2ccccc2)n[nH]1 | 7.94 µM | ≥ 70 µg/mL | > 6 | > 50.1 µM | – | –
C[C@H](Oc1ccc(C(N)=O)cc1-c1cn(C)nn1)c1ccccn1 | 0.251 µM | 131 µg/mL (≈ 405 µM) | 25 | 6.31 µM | 4.7 ×10⁻⁶ cm/s | –
Cn1cc(-c2ccccc2OCc2ccccc2)nn1 | 3.98 µM | 87 µg/mL (≈ 328 µM) | 5 | 20 µM | – | –
CCNC(=O)c1ccc(OCc2cccnc2)c(-c2cn(C)nn2)c1 | 1 µM | 103 µg/mL (≈ 305 µM) | > 50 | > 50.1 µM | 18 ×10⁻⁶ cm/s | –
CCNC(=O)c1ccc(OCc2ncccn2)c(-c2cn(C)nn2)c1 | 1.58 µM | ≥ 103 µg/mL | > 30 | > 50.1 µM | 3.7 ×10⁻⁶ cm/s | –
CCNC(=O)c1cc(Cc2ccccc2OC)nc(-c2cn(C)nn2)c1 | 0.2 µM | 62 µg/mL (≈ 176 µM) | 200 | 39.8 µM | 37 ×10⁻⁶ cm/s | –
CCNC(=O)c1cc(Cc2cccc(OC)c2)nc(-c2cn(C)nn2)c1 | 0.631 µM | ≥ 45 µg/mL | > 80 | > 50.1 µM | 47 ×10⁻⁶ cm/s | –
CC(=O)Nc1c(F)cc(C(=O)N[C@H]2CC[C@H](O)CC2)cc1O[C@@H](C)c1ccccc1 [GSK046] | – | – | – | – | 1.7 ×10⁻⁶ cm/s | 996 µg/mL (≈ 2400 µM)
CCNC(=O)c1cc(Cc2ccccc2)nc(C(=O)NC)c1 | – | ≥ 102 µg/mL | – | – | 39 ×10⁻⁶ cm/s | 310 µg/mL (≈ 1040 µM)
CCNC(=O)c1cc(Cc2cccc(F)c2)nc(-c2cn(C)nn2)c1 | 0.251 µM | 73 µg/mL (≈ 215 µM) | 65 | 15.8 µM | 41 ×10⁻⁶ cm/s | –
Cn1cc(-c2cc(C(N)=O)cc(Cc3ccccc3)n2)nn1 | 0.251 µM | 40 µg/mL (≈ 136 µM) | 50 | 12.6 µM | 14 ×10⁻⁶ cm/s | –

Continued by falling IC50 [1], values first:

IC50 [1] | solubility kinetic [2] | Ratio pIC50 (Homo sapiens) | IC50 [3] | Papp [4] | solubility at 4 h [5] | SMILES
0.126 µM | ≥ 162 µg/mL | 160 | 20 µM | 48 ×10⁻⁶ cm/s | – | CCNC(=O)c1ccc(OCc2ccccc2OC)c(-c2cn(C)nn2)c1
0.126 µM | ≥ 141 µg/mL | 160 | 20 µM | 27 ×10⁻⁶ cm/s | – | Cn1cc(-c2cc(C(=O)NC3CCOCC3)cc(Cc3ccccc3)n2)nn1
0.126 µM | ≥ 76 µg/mL | 125 | – | 36 ×10⁻⁶ cm/s | – | Cn1cc(-c2cc(C(=O)NC3CC3)cc(Cc3ccccc3)n2)nn1
0.126 µM | ≥ 194 µg/mL | 100 | 15.8 µM | 5.9 ×10⁻⁶ cm/s | – | C[C@H](Oc1ccc(C(=O)NC2CCOCC2)cc1-c1cn(C)nn1)c1ccccn1
0.126 µM | 46 µg/mL (≈ 137 µM) | 100 | 12.6 µM | 4.6 ×10⁻⁶ cm/s | – | CCNC(=O)c1ccc(OCc2ccccc2)c(-c2cn(C)nn2)c1
0.126 µM | ≥ 138 µg/mL | 80 | 10 µM | 7 ×10⁻⁶ cm/s | – | CNC(=O)c1ccc(O[C@@H](C)c2ccccn2)c(-c2cn(C)nn2)c1
0.1 µM | ≥ 157 µg/mL | 170 | – | 32.5 ×10⁻⁶ cm/s | – | CCNC(=O)c1cc(Cc2ccccc2)nc(-c2cn(C)nn2)c1
0.0794 µM | ≥ 127 µg/mL | 100 | 7.94 µM | 15 ×10⁻⁶ cm/s | – | CCNC(=O)c1ccc(O[C@@H](C)c2ccccn2)c(-c2cn(C)nn2)c1
0.0631 µM | ≥ 189 µg/mL | 250 | 15.8 µM | 4.8 ×10⁻⁶ cm/s | – | Cn1cc(-c2cc(C(=O)NCC[C@H]3CNCCO3)cc(Cc3ccccc3)n2)nn1
0.0631 µM | ≥ 182 µg/mL | 125 | 7.94 µM | < 0.3 ×10⁻⁶ cm/s | – | C[C@H](Oc1ccc(C(=O)NCC[C@H]2CNCCO2)cc1-c1cn(C)nn1)c1ccccn1
0.0501 µM | ≥ 145 µg/mL | 100 | 5.01 µM | 24 ×10⁻⁶ cm/s | – | Cn1cc(-c2cc(C(=O)N[C@H]3[C@@H]4COC[C@@H]43)cc(Cc3ccccc3)n2)nn1
0.0398 µM | 105 µg/mL (≈ 300 µM) | 100 | 3.98 µM | 42 ×10⁻⁶ cm/s | – | CCNC(=O)c1ccc(O[C@@H](C)c2ccccc2)c(-c2cn(C)nn2)c1
0.0316 µM | ≥ 138 µg/mL | 400 | 12.6 µM | 1.8 ×10⁻⁶ cm/s | – | Cn1cc(-c2cc(C(=O)NCC[C@@H]3CNCCO3)cc(Cc3ccccc3)n2)nn1
0.0251 µM | ≥ 134 µg/mL | 400 | 10 µM | < 0.3 ×10⁻⁶ cm/s | – | Cn1cc(-c2cc(C(=O)NCCCC3CCNCC3)cc(Cc3ccccc3)n2)nn1
0.0251 µM | ≥ 181 µg/mL | 250 | 6.31 µM | 1.9 ×10⁻⁶ cm/s | – | Cn1cc(-c2cc(C(=O)NCC[C@]3(F)CCCNC3)cc(Cc3ccccc3)n2)nn1
0.0251 µM | ≥ 169 µg/mL | 65 | 1.58 µM | 4.2 ×10⁻⁶ cm/s | – | C[C@H](Oc1ccc(C(=O)N[C@H]2[C@@H]3COC[C@@H]32)cc1-c1cn(C)nn1)c1ccccn1
0.0251 µM | ≥ 177 µg/mL | 250 | 6.31 µM | < 0.3 ×10⁻⁶ cm/s | – | C[C@H](Oc1ccc(C(=O)NCC[C@@H]2CNCCO2)cc1-c1cn(C)nn1)c1ccccn1
0.01 µM | ≥ 172 µg/mL | 500 | 5.01 µM | 2.3 ×10⁻⁶ cm/s | – | Cn1cc(-c2cc(C(=O)NCCC[C@@]3(F)CCCNC3)cc(Cc3ccccc3)n2)nn1
0.01 µM | ≥ 193 µg/mL | 400 | 3.98 µM | 0.53 ×10⁻⁶ cm/s | – | C[C@H](Oc1ccc(C(=O)NCCC[C@@]2(F)CCCNC2)cc1-c1cn(C)nn1)c1ccccn1
